Assay results: patent US7399638B2, “Prediction method for lipidosis” (Takeda Pharmaceutical Company Limited, priority 2003, dated 2008)
Like-named read-outs stand apart in the source and are kept apart here. Marks after values point to notes of the source that are not given here.

What was measured:
Crj: CD(SD)IGS rats [1] = settings: male, rat, in vivo, 3 days
Description: (§1) The following 10 kinds of commercially available drugs were examined as the test compounds for a potential of inducing PLsis by histopathological examination and peripheral blood lymphocyte testing.
(§2) The following experiments were performed using the prematurely autopsied animals.
(§3) The high-dose dosing suspension was diluted about 3 fold and 10 fold with dispersant/solvent to prepare intermediate- and low-dose dosing suspensions. […] [For LD50, the Summary Basis of Approval (FDA) for each drug was referenced to.]
(§4) The animals were examined for mortality, general conditions, body weight, food consumption and the like using PM4800 (Mettler) and EB3200D (Shimadzu Corporation).
Hematological examination was performed for parameters such as RBC count, hematocrit, hemoglobin concentration, mean corpuscular hemoglobin (MCH), mean corpuscular hemoglobin concentration (MCHC), mean corpuscular volume (MCV), platelet count, WBC count, reticulocyte count, differential WBC, and vacuolated lymphocyte ratio (for PLsis-inducing compounds only) using ADVIA120 (Bayer Medical Ltd.) and E-4000 (Sysmex Corporation).

Crj: CD(SD)IGS rats [2] = settings: rat, in vivo
Description: as §1, §2, §3, §4

[3] = from Summary Basis of Approval (FDA); species and route not given; cited from earlier work
Crj: CD(SD)IGS rats [4] = test: Urinary PAG/hippuric acid ratio by 1H NMR in rats; settings: rat urine; for PAG + hippuric acid/creatinine / PAG/PAG + hippuric acid / PAG/creatinine (first term of PAG + hippuric acid) / PAG/hippuric acid / hippuric acid/creatinine (second term of PAG + hippuric acid): 3 days, mean n = 3-4
male cynomolgus monkeys [5] = test: Urinary PAGN/hippuric acid ratio by 1H NMR in monkeys; format: in vivo, cynomolgus monkey; settings: for Urinary PAGN/hippuric acid ratio: male cynomolgus monkey, 60 mg/kg/day by gavage for 7 days
Description: (§5) Subsequently, the animals were allocated to four groups (5 animals in total) comprising 2 animals in the control group and 1 male in each treatment group, respectively.
(§6) The high-dose dosing suspension was diluted with the dispersant/solvent to prepare a low-dose dosing suspension.
Pooled urine was collected from the monkeys in the Example above under fasting for about 6 hours in the pre-dosing period (Pre), on the first day of administration (Day 0), and on days 2 and 6 of treatment period (Days 2 and 6).
^1H NMR was performed as described below. Reagents were used without purification. Heavy water (D2O) was purchased from ISOTEC. […] INC (USA).
A phosphate buffer solution was prepared as described below.
Operating conditions were set as shown below.

male cynomolgus monkeys [6] = settings: cynomolgus monkey, in vivo, 60 mg/kg
Description: Amiodarone and perhexiline were purchased from SIGMA Company.
as §5, §6
After completion of the administration, livers, kidneys, hearts, spleens, lungs, mesenteric lymph nodes, eyeballs, testes and brains were collected from all animals, and examined for histopathological changes by conventional method of optical microscopy. Additionally, blood samples were collected in the pre-dosing period, on the first day of administration, and on days 2 and 6 of treatment period, blood smear specimens were prepared, and vacuolated lymphocyte ratios were determined.

CN(C)CCCN1c2ccccc2Sc2ccc(Cl)cc21 [Chlorpromazine, chlorpromazine]
Mean vacuolated lymphocyte ratio (Crj: CD(SD)IGS rats [1]; 100 mg/kg/day): 2% | Mean vacuolated lymphocyte ratio (Crj: CD(SD)IGS rats [1]; 300 mg/kg/day): 2% | Mean vacuolated lymphocyte ratio (Crj: CD(SD)IGS rats [1]; 1000 mg/kg/day): 1% | PLsis positivity by histopathological examination or vacuolated lymphocyte testing (Crj: CD(SD)IGS rats [2]): could not be determined | Histopathological changes (PLsis): Liver (Crj: CD(SD)IGS rats [2]; 100 mg/kg/day): − | Histopathological changes (PLsis): Lung (Crj: CD(SD)IGS rats [2]; 100 mg/kg/day): − | Histopathological changes (PLsis): Lymph node (Crj: CD(SD)IGS rats [2]; 100 mg/kg/day): − | Histopathological changes (PLsis): Others (Crj: CD(SD)IGS rats [2]; 100 mg/kg/day): − | Histopathological changes (PLsis): Spleen (Crj: CD(SD)IGS rats [2]; 100 mg/kg/day): − | Histopathological changes (PLsis): Liver (Crj: CD(SD)IGS rats [2]; 300 mg/kg/day): − | Histopathological changes (PLsis): Lung (Crj: CD(SD)IGS rats [2]; 300 mg/kg/day): − | Histopathological changes (PLsis): Lymph node (Crj: CD(SD)IGS rats [2]; 300 mg/kg/day): − | Histopathological changes (PLsis): Others (Crj: CD(SD)IGS rats [2]; 300 mg/kg/day): − | Histopathological changes (PLsis): Spleen (Crj: CD(SD)IGS rats [2]; 300 mg/kg/day): − | Histopathological changes (PLsis): Liver (Crj: CD(SD)IGS rats [2]; 1000 mg/kg/day): − | Histopathological changes (PLsis): Lung (Crj: CD(SD)IGS rats [2]; 1000 mg/kg/day): − | Histopathological changes (PLsis): Lymph node (Crj: CD(SD)IGS rats [2]; 1000 mg/kg/day): − | Histopathological changes (PLsis): Others (Crj: CD(SD)IGS rats [2]; 1000 mg/kg/day): − | Histopathological changes (PLsis): Spleen (Crj: CD(SD)IGS rats [2]; 1000 mg/kg/day): − | LD50 [3]: 145 mg/kg | PAG + hippuric acid/creatinine (Crj: CD(SD)IGS rats [4]; 100 mg/kg/day by gavage): 1.45 | PAG/PAG + hippuric acid (Crj: CD(SD)IGS rats [4]; 100 mg/kg/day by gavage): 12.80% | PAG/creatinine (first term of PAG + hippuric acid) (Crj: CD(SD)IGS rats [4]; 100 mg/kg/day by gavage): 0.18 | PAG/hippuric acid (Crj: CD(SD)IGS rats [4]; 100 mg/kg/day by gavage): 14.93% | hippuric acid/creatinine (second term of PAG + hippuric acid) (Crj: CD(SD)IGS rats [4]; 100 mg/kg/day by gavage): 1.27 | PAG + hippuric acid/creatinine (Crj: CD(SD)IGS rats [4]; 300 mg/kg/day by gavage): 1.63 | PAG/PAG + hippuric acid (Crj: CD(SD)IGS rats [4]; 300 mg/kg/day by gavage): 12.57% | PAG/creatinine (first term of PAG + hippuric acid) (Crj: CD(SD)IGS rats [4]; 300 mg/kg/day by gavage): 0.21 | PAG/hippuric acid (Crj: CD(SD)IGS rats [4]; 300 mg/kg/day by gavage): 14.51% | PAG + hippuric acid/creatinine (Crj: CD(SD)IGS rats [4]; 1000 mg/kg/day by gavage): 0.86* | PAG/PAG + hippuric acid (Crj: CD(SD)IGS rats [4]; 1000 mg/kg/day by gavage): 42.20* % | PAG/creatinine (first term of PAG + hippuric acid) (Crj: CD(SD)IGS rats [4]; 1000 mg/kg/day by gavage): 0.30 | PAG/hippuric acid (Crj: CD(SD)IGS rats [4]; 1000 mg/kg/day by gavage): 104.13* % | hippuric acid/creatinine (second term of PAG + hippuric acid) (Crj: CD(SD)IGS rats [4]; 1000 mg/kg/day by gavage): 0.56 | PAG/hippuric acid ratio or PAG/(PAG+hippuric acid) ratio (Crj: CD(SD)IGS rats [4]; high-dose administration group, 3-day administration): remarkable increase

C1CCC(C(CC2CCCCN2)C2CCCCC2)CC1 (stereo not drawn) [Perhexiline, perhexiline]
Mean vacuolated lymphocyte ratio (Crj: CD(SD)IGS rats [1]; 60 mg/kg/day): 2% | Mean vacuolated lymphocyte ratio (Crj: CD(SD)IGS rats [1]; 200 mg/kg/day): 4% | Mean vacuolated lymphocyte ratio (Crj: CD(SD)IGS rats [1]; 600 mg/kg/day): 52% | Histopathological changes (PLsis): Liver (Crj: CD(SD)IGS rats [2]; 60 mg/kg/day): − | Histopathological changes (PLsis): Lung (Crj: CD(SD)IGS rats [2]; 60 mg/kg/day): − | Histopathological changes (PLsis): Lymph node (Crj: CD(SD)IGS rats [2]; 60 mg/kg/day): − | Histopathological changes (PLsis): Others (Crj: CD(SD)IGS rats [2]; 60 mg/kg/day): − | Histopathological changes (PLsis): Spleen (Crj: CD(SD)IGS rats [2]; 60 mg/kg/day): − | Histopathological changes (PLsis): Liver (Crj: CD(SD)IGS rats [2]; 200 mg/kg/day): − | Histopathological changes (PLsis): Lung (Crj: CD(SD)IGS rats [2]; 200 mg/kg/day): + | Histopathological changes (PLsis): Lymph node (Crj: CD(SD)IGS rats [2]; 200 mg/kg/day): + | Histopathological changes (PLsis): Others (Crj: CD(SD)IGS rats [2]; 200 mg/kg/day): − | Histopathological changes (PLsis): Spleen (Crj: CD(SD)IGS rats [2]; 200 mg/kg/day): − | Histopathological changes (PLsis): Liver (Crj: CD(SD)IGS rats [2]; 600 mg/kg/day): − | Histopathological changes (PLsis): Lung (Crj: CD(SD)IGS rats [2]; 600 mg/kg/day): + | Histopathological changes (PLsis): Lymph node (Crj: CD(SD)IGS rats [2]; 600 mg/kg/day): + | Histopathological changes (PLsis): Others (Crj: CD(SD)IGS rats [2]; 600 mg/kg/day): − | Histopathological changes (PLsis): Spleen (Crj: CD(SD)IGS rats [2]; 600 mg/kg/day): + | PAGN/hippuric acid ratio compared to the control group (male cynomolgus monkeys [5]; cynomolgus monkey urine, 60 mg/kg, gavage 7 days): increased | Urinary PAGN/hippuric acid ratio (male cynomolgus monkeys [5]; Day 0, 1 animal): 2.17 | Urinary PAGN/hippuric acid ratio (male cynomolgus monkeys [5]; Day 2, 1 animal): 1.43 | Urinary PAGN/hippuric acid ratio (male cynomolgus monkeys [5]; Day 6, 1 animal): ↑12.89 | Urinary PAGN/hippuric acid ratio (male cynomolgus monkeys [5]; Pre (pre-dosing period), 1 animal): 1.10 | histopathological changes in any target organ (male cynomolgus monkeys [6]): observed | vacuolated lymphocyte ratio (male cynomolgus monkeys [6]): increase | PAG + hippuric acid/creatinine (Crj: CD(SD)IGS rats [4]; 60 mg/kg/day by gavage): 1.47 | PAG/PAG + hippuric acid (Crj: CD(SD)IGS rats [4]; 60 mg/kg/day by gavage): 10.16% | PAG/creatinine (first term of PAG + hippuric acid) (Crj: CD(SD)IGS rats [4]; 60 mg/kg/day by gavage): 0.15 | PAG/hippuric acid (Crj: CD(SD)IGS rats [4]; 60 mg/kg/day by gavage): 11.39% | hippuric acid/creatinine (second term of PAG + hippuric acid) (Crj: CD(SD)IGS rats [4]; 60 mg/kg/day by gavage): 1.31 | PAG + hippuric acid/creatinine (Crj: CD(SD)IGS rats [4]; 200 mg/kg/day by gavage): 1.52 | PAG/PAG + hippuric acid (Crj: CD(SD)IGS rats [4]; 200 mg/kg/day by gavage): 15.59* % | PAG/creatinine (first term of PAG + hippuric acid) (Crj: CD(SD)IGS rats [4]; 200 mg/kg/day by gavage): 0.24 | PAG/hippuric acid (Crj: CD(SD)IGS rats [4]; 200 mg/kg/day by gavage): 18.49% | hippuric acid/creatinine (second term of PAG + hippuric acid) (Crj: CD(SD)IGS rats [4]; 200 mg/kg/day by gavage): 1.28 | PAG + hippuric acid/creatinine (Crj: CD(SD)IGS rats [4]; 600 mg/kg/day by gavage): 0.75* | PAG/PAG + hippuric acid (Crj: CD(SD)IGS rats [4]; 600 mg/kg/day by gavage): 45.67* % | PAG/creatinine (first term of PAG + hippuric acid) (Crj: CD(SD)IGS rats [4]; 600 mg/kg/day by gavage): 0.31 | PAG/hippuric acid (Crj: CD(SD)IGS rats [4]; 600 mg/kg/day by gavage): 146.97* % | hippuric acid/creatinine (second term of PAG + hippuric acid) (Crj: CD(SD)IGS rats [4]; 600 mg/kg/day by gavage): 0.44
